Columns and labels:
[1] = system: mice with intrafemoral Lewis lung carcinoma (LLC); assay: Open field test in LLC bone cancer model; assay type: in vivo, mouse; conditions: d14 after tumor inoculation
Experimental: Behavior tests. All the behavioral tests were conducted in a blinded manner and performed during between the hours of 9:00-16:00. Animals were habituated in a light and humidity controlled testing environment for at least 2 days prior to baseline testing. For Von Frey testing, mice were confined to individual 5×5 cm boxes placed on an elevated wire grid. A blinded experimenter stimulated their hindpaws using a series of von Frey filaments with logarithmically increasing stiffness (0.02-2.56 g, Stoelting). Each filament was applied perpendicularly to the central plantar surface. The 50% paw withdrawal threshold was determined using Dixon's up-down method. In addition, we also measured paw withdrawal frequency to repeated stimulation (10 times, with ˜1-2 minutes between each stimulation) using a subthreshold 0.16 g von Frey filament, which is a more sensitive method to detect mechanical allodynia. […] To measure locomotor function, we performed open field testing in which mice were placed in the center of a 45×45 cm chamber and locomotor activity was recorded by an overhead webcam connected to a laptop computer, and animals' movements were automatically tracked for 30 minutes using ANY-Maze. The total distance traveled and mean speed during the 30-minute period were analyzed.

IFN-β = IFN-β ELISA in serum and bone marrow lysate after i.p. STING agonist, LLC model; assay type: in vivo, mouse; conditions: for serum IFN-β levels: 4 h after i.p. 20 mg/kg; for IFN-β in bone marrow (BM) lysate: 4 h after i.p., d3
Experimental: (§1) ELISA. Mouse high-sensitivity IFN-α ELISA kit (42115-1) and IFN-β ELISA kit (42410-1) were purchased from PBL Assay Science. Mouse CTX-I ELISA kit (AC-06F1) and mouse PINP ELISA kit (AC-33F1) were purchased from Immunodiagnostic Systems. ELISA was performed using culture medium, serum, and bone marrow lysates. Serum was obtained from whole blood that was collected from a submandibular vein via facial vein puncture, coagulated for 30 minutes at room temperature, followed by centrifugation (2,000 ×g for 10 min, 4° C.) and collection of the supernatant (serum). Bone marrow was homogenized in a lysis buffer containing protease inhibitors at 4° C. for 30 minutes. ELISA was conducted in accordance with the manufacturer's instructions. A standard curve was performed for each experiment.

RAW 264.7 cells = assay: In vitro osteoclastogenesis, RANKL-treated RAW 264.7 cells, TRAP staining; assay type: cell-based, mouse; conditions: RANKL 35 ng/ml, 6 days, escalating dose
Experimental: (§2) In vitro induction of osteoclastogenesis and TRAP staining. For in vitro drug treatment, the RAW 264.7 cells were incubated with 35 ng/ml RANKL for six days. Isolated bone marrow cells were cultured overnight in α-MEM media containing 10% fetal bovine serum and 1% antibiotic-antimycotic solution. The suspended cells were collected and incubated with 20 ng/ml MCSF for 3 days to obtain bone marrow-derived macrophage (BMDM). The attached cells were further activated by 35 ng/ml RANKL and 20 ng/ml MCSF. Drug treatment was performed in tandem with RANKL. Culture medium and co-cultured reagents were changed every 3 days. After 6 or 7 days of incubation, the cells were fixed by 4% PFA and stained with warm TRAP staining solution (TRAP kit, Sigma-Aldrich, SLBW4002) for 10-30 min at 37° C.

IFN-α = IFN-α ELISA on BMDM culture medium; assay type: cell-based, mouse; conditions: 24 h after incubation
Experimental: as §1
as §2, with “After 6 or 7 days of incubation, the cells were fixed by 4% PFA and stained with warm TRAP staining solution (TRAP kit, Sigma-Aldrich, SLBW4002) for 10-30 min at 37° C.” left out

DRG nociceptors = assay: Whole-cell patch clamp recordings in whole-mount DRGs ex vivo; assay type: cell-based, mouse; conditions: PTX-treated Ifnar1-WT or Ifnar1-KO mice, ex vivo incubation 30 μM
Experimental: Whole-cell patch clamp recordings in whole-mount DRGs ex vivo: To test the effects of anti-IFNβ neutralizing antibodies, naïve male and female mice were utilized. […] To perform whole-cell patch clamp recordings in whole-mount DRGs, L1-L5 DRGs were carefully isolated and placed in oxygenated ACSF. Using a stereoscope, peripheral and central DRG projections and connective tissue were dissected away. DRGs were lightly digested for 20 minutes using an enzymatic mixture consisting of 0.32 ml collagenase A (1 mg/mL) and Trypsin (0.25%). […] Following incubation, DRGs were transferred to a recording chamber, where neurons could be visualized using a 40× water-immersion objective on an Olympus BX51WI microscope. The recording chamber was continuously perfused (2-3 ml/min) with ACSF. The pipette solution contained 140 mM KC1, 2 mM MgCl2, 10 mM HEPES, 2 mM Mg-ATP at pH 7.4. The resistance of the glass pipettes was 8-10 MΩ. Data were acquired and analyzed using the pClamp10 (Axon Instruments) software.

[2] = system: outer lamina II (IIo) spinal cord interneurons; assay: Whole-cell patch-clamp recording in mouse spinal cord slices; assay type: cell-based; conditions: slice incubation
Experimental: Whole-cell patch-clamp recording in mouse spinal cord slices: 4 to 6-week-old mice were anesthetized with urethane (1.5-2.0 g/kg, i.p.). […] After extraction of the spinal cord under anesthesia, animals were rapidly euthanized via decapitation. Transverse spinal slices (300 to 400 μm) were prepared using a vibrating microtome (VT1200S Leica). The slices were incubated at 32° C. for at least 30 min in ACSF equilibrated with 95% O2 and 5% CO2. The slices were placed in a recording chamber and completely submerged and perfused at a flow rate of 2 to 4 ml/min with ACSF saturated with 95% O2 and 5% CO2 at room temperature. Lamina II neurons in lumbar segments were identified as a translucent band under a microscope (BX51WIF; Olympus) with light transmitted from below. Whole-cell voltage-clamp recordings were made from outer lamina II neurons using patch pipettes. The patch pipette solution used to record sEPSCs contained 135 mM K-gluconate, 5 mM KCl, 0.5 mM CaCl2, 2 mM MgCl2, 5 mM EGTA, 5 mM HEPES, and 5 mM Mg-ATP (pH 7.3 adjusted with KOH). […] Signals were acquired using an […] amplifier. The data were stored and analyzed with a PC using pCLAMP 10.3 software.

LLC lung tumor nodules = assay: Lung metastases after intrafemoral LLC inoculation; assay type: in vivo, mouse; conditions: d17, 20 mg/kg i.p., vs vehicle or ZA
From the text: Visual and immunohistochemical analysis of lung metastases. Mice were deeply anesthetized with isoflurane and perfused intracardially with PBS, followed by 4% PFA. After the perfusion, lungs were removed from mice and post-fixed in the same fixative overnight. The samples were then dehydrated with a 30% sucrose solution, embedded in O.C.T. (Tissue Tek), and cryosectioned to produce 8 μm thick sections. For Hematoxylin and Eosin (H & E) staining, lung sections were rehydrated and stained with 0.1% Hematoxylin and 0.5% Eosin in sequence. After dehydration and clearance with HistoClear (Electron

| SMILES | open field distance and speed of movement [1] | serum IFN-β levels (IFN-β) | IFN-β in bone marrow (BM) lysate (IFN-β) | osteoclast differentiation (RAW 264.7 cells) | IFN-α levels in the culture medium (IFN-α) | action potential firing of DRG nociceptors (DRG nociceptors) | frequency and amplitude of spontaneous EPSCs (sEPSCs) [2] | lung tumor nodules (LLC lung tumor nodules) |
| --- | --- | --- | --- | --- | --- | --- | --- | --- |
| Cc1ccc2c(=O)c3cccc(CC(=O)O)c3oc2c1C [DMXAA, 2-(5,6-dimethyl-9-oxo-9H-xanthen-4-yl)acetic acid] | greater overall distance of movement and increased speed of movement | dramatically upregulated | sharply increased | dose dependently inhibited osteoclast differentiation | drastic increase in IFN-α and IFN-β levels | – | – | – |
| Nc1ncnc2c1ncn2[C@@H]1O[C@@H]2COP(=O)([S-])O[C@@H]3[C@H](O)[C@@H](COP([O-])(=S)O[C@H]2[C@H]1O)O[C@H]3n1cnc2c(N)ncnc21.[Na+].[Na+] (stereo partly drawn) [ADU-S100, (2′-5′)-[P(R)]-5′-O-[(R)-hydroxymercaptophosphinyl]-P-thioadenylyl-adenosine cyclic dinucleotide] | increased overall distance of movement and increased speed of movement | dramatically upregulated | sharply increased | dose dependently inhibited osteoclast differentiation | drastic increase in IFN-α and IFN-β levels | dramatically reduced action potential firing in WT mice, and this effect was abolished in Ifnar1-deficient neurons | decreased both the frequency and amplitude of spontaneous EPSCs | fewer lung tumor nodules |

— patent US20230158057A1, “COMPOSITIONS AND METHODS FOR THE TREATMENT OF PAIN” (Duke University, priority 2020, published 2023)
